Assay results as given in patent EP4722212A1, “NOVEL COMPOUND FOR INHIBITING PROTEIN KINASES AND PHARMACEUTICAL COMPOSITION COMPRISING SAME” (Magicbullettherapeutics Co., Ltd., priority 2023, dated 2024).
Where two headings read alike, the source gives them in different places.

Columns and labels:
Assay in all cases: Kinase panel
Assay type in all cases: biochemical
[1] = biological target: ABL1 (Homo sapiens, UniProt P00519); details: ABL1, 1 µM; read-out: residual enzyme activity
How it was run: (§1)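 Compound at 1 µM was screened against a complete panel of purified kinases in biochemical format. Activity left after treatment was calculated and kinases inhibited by 60% or more were selected.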

[2] = biological target: T1, ACK1 (Homo sapiens, UniProt Q07912); details: ACK1, 1 µM; read-out: residual enzyme activity
T1 construct: purchased Reaction Biology (RBC)
How it was run: as §1

[3] = biological target: ALK5/TGFBR1 (Homo sapiens, UniProt P36897); details: ALK5/TGFBR1, 1 µM; read-out: residual enzyme activity
How it was run: as §1

[4] = biological target: AURORA B (Homo sapiens, UniProt Q96GD4); details: read-out: residual enzyme activity
How it was run: as §1

[5] = biological target: BLK (Homo sapiens, UniProt P51451); details: read-out: residual enzyme activity
How it was run: as §1

[6] = biological target: BRK (Homo sapiens, UniProt Q13882); details: read-out: residual enzyme activity
How it was run: as §1

[7] = biological target: CAMKIG (Homo sapiens, UniProt Q96NX5); details: read-out: residual enzyme activity
How it was run: as §1

[8] = biological target: CDK3/CYCLIN E2 (Homo sapiens, UniProt Q00526); details: CDK3/cyclin E2, 1 µM; read-out: residual enzyme activity
How it was run: as §1

[9] = biological target: CDK9/CYCLIN K (Homo sapiens, UniProt P50750); details: read-out: residual enzyme activity
How it was run: as §1

[10] = biological target: CHK2 (Homo sapiens, UniProt O96017); details: CHK2, 1 µM; read-out: residual enzyme activity
How it was run: as §1

[11] = biological target: CKIEPSILON (Homo sapiens, UniProt P49674); details: read-out: residual enzyme activity
How it was run: as §1

[12] = biological target: CKIG3 (Homo sapiens, UniProt Q9Y6M4); details: CKIG3, 1 µM; read-out: residual enzyme activity
How it was run: as §1

[13] = biological target: CLK3 (Homo sapiens, UniProt P49761); details: CLK3, 1 µM; read-out: residual enzyme activity
How it was run: as §1

[14] = biological target: DAPK1 (Homo sapiens, UniProt P53355); details: DAPK1, 1 µM; read-out: residual enzyme activity
How it was run: as §1

[15] = biological target: DAPK2 (Homo sapiens, UniProt Q9UIK4); details: DAPK2, 1 µM; read-out: residual enzyme activity
How it was run: as §1

[16] = biological target: EPHAS (Homo sapiens, UniProt P29322); details: read-out: residual enzyme activity
How it was run: as §1

[17] = biological target: FER (Homo sapiens, UniProt P16591); details: read-out: residual enzyme activity
How it was run: as §1

[18] = biological target: FGFR1 (Homo sapiens, UniProt P11362); details: FGFR1, 1 µM; read-out: residual enzyme activity
How it was run: as §1

[19] = biological target: FGFR2 (Homo sapiens, UniProt P21802); details: FGFR2, 1 µM; read-out: residual enzyme activity
How it was run: as §1

[20] = biological target: FGFR4 (Homo sapiens, UniProt P22455); details: FGFR4, 1 µM; read-out: residual enzyme activity
How it was run: as §1

[21] = biological target: FRK/PTKS (Homo sapiens, UniProt P42685); details: read-out: residual enzyme activity
How it was run: as §1

[22] = biological target: GRK1 (Homo sapiens, UniProt Q15835); details: GRK1, 1 µM; read-out: residual enzyme activity
How it was run: as §1

[23] = biological target: GSK3B (Homo sapiens, UniProt P49841); details: read-out: residual enzyme activity
How it was run: as §1

[24] = biological target: IRAK1 (Homo sapiens, UniProt P51617); details: IRAK1, 1 µM; read-out: residual enzyme activity
How it was run: as §1

[25] = biological target: JAK1 (Homo sapiens, UniProt P23458); details: JAK1, 1 µM; read-out: residual enzyme activity
How it was run: as §1

[26] = biological target: LOK/STK10 (Homo sapiens, UniProt O94804); details: LOK/STK10, 1 µM; read-out: residual enzyme activity
How it was run: as §1

[27] = biological target: NLK (Homo sapiens, UniProt Q9UBE8); details: read-out: residual enzyme activity
How it was run: as §1

[28] = biological target: OSR1/OXSR1 (Homo sapiens, UniProt O95747); details: OSR1/OXSR1, 1 µM; read-out: residual enzyme activity
How it was run: as §1

[29] = biological target: P70S6KB/RPS6KB2 (Homo sapiens, UniProt Q9UBS0); details: read-out: residual enzyme activity
How it was run: as §1

[30] = biological target: PLK2 (Homo sapiens, UniProt Q9NYY3); details: PLK2, 1 µM; read-out: residual enzyme activity
How it was run: as §1

[31] = biological target: STK22D/TSSK1 (Homo sapiens, UniProt Q9BXA7); details: STK22D/TSSK1, 1 µM; read-out: residual enzyme activity
How it was run: as §1

[32] = biological target: STK38L/NDR2 (Homo sapiens, UniProt Q9Y2H1); details: STK38L/NDR2, 1 µM; read-out: residual enzyme activity
How it was run: as §1

[33] = biological target: TRKA (Homo sapiens, UniProt P04629); details: read-out: residual enzyme activity
How it was run: as §1

Sequence of DAPK1 (P53355 whole entry, species assumed): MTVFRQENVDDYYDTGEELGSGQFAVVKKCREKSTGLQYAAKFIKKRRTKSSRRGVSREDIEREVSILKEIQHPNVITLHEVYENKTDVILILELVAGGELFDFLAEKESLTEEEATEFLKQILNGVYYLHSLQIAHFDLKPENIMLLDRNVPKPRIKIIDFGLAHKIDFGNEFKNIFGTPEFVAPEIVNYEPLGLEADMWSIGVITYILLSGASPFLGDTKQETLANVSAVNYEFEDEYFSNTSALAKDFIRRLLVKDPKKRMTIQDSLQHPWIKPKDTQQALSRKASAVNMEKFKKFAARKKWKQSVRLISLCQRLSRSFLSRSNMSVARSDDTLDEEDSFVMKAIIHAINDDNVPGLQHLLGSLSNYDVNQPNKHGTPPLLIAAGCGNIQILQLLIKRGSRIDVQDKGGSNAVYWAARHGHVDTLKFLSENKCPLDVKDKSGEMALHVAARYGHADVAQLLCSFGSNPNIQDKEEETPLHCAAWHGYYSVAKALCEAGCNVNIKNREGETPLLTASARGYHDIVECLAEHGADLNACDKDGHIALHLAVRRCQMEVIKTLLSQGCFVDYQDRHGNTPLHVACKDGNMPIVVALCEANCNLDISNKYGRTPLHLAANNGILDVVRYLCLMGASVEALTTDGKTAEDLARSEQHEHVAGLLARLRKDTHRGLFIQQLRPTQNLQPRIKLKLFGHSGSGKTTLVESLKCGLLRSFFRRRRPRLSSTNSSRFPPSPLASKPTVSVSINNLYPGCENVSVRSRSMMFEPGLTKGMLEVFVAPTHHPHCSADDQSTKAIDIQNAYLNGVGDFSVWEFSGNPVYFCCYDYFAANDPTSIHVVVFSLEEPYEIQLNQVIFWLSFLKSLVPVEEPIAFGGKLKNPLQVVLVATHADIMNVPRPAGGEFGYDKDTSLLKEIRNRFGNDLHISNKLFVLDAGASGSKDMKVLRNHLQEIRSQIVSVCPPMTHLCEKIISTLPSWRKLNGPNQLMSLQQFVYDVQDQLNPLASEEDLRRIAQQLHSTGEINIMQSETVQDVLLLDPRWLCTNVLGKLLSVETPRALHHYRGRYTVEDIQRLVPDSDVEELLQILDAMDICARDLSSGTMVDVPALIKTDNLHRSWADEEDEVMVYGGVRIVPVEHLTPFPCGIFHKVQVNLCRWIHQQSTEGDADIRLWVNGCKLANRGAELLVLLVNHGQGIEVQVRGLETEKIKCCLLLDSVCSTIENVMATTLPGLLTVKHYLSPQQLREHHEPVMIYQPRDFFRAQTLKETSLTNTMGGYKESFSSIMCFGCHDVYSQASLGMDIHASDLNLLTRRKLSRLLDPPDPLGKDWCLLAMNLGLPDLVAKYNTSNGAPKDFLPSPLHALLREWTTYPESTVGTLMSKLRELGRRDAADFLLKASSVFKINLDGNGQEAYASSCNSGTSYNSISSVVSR
Sequence of CKIG3 (Q9Y6M4 whole entry): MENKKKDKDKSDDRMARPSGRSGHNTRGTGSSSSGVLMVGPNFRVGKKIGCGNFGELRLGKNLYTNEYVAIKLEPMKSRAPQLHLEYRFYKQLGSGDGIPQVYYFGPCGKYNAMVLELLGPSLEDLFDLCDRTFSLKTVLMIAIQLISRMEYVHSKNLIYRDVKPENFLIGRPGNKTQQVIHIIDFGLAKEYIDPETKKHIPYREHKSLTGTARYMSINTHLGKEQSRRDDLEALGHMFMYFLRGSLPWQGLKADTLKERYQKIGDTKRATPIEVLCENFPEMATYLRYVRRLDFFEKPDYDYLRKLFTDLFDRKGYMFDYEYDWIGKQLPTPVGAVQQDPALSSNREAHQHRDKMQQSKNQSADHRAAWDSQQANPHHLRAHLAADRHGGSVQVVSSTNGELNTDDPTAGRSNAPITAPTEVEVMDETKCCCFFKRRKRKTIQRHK
Sequence of OSR1/OXSR1 (O95747 whole entry): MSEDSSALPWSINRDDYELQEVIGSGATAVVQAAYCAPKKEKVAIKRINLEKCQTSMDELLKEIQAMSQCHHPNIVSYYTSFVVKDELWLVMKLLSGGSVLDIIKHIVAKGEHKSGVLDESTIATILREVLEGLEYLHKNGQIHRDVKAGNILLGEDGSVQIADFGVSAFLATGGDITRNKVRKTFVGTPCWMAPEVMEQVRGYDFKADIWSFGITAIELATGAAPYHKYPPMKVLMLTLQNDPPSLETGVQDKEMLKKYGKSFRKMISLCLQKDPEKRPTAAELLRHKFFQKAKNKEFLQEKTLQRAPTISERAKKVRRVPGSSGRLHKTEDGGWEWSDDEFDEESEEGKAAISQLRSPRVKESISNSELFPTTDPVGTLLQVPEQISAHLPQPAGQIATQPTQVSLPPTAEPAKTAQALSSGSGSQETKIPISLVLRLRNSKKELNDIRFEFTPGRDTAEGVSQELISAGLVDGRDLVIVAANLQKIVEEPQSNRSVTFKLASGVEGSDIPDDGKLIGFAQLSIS
Sequence of CHK2 (O96017 whole entry, species assumed): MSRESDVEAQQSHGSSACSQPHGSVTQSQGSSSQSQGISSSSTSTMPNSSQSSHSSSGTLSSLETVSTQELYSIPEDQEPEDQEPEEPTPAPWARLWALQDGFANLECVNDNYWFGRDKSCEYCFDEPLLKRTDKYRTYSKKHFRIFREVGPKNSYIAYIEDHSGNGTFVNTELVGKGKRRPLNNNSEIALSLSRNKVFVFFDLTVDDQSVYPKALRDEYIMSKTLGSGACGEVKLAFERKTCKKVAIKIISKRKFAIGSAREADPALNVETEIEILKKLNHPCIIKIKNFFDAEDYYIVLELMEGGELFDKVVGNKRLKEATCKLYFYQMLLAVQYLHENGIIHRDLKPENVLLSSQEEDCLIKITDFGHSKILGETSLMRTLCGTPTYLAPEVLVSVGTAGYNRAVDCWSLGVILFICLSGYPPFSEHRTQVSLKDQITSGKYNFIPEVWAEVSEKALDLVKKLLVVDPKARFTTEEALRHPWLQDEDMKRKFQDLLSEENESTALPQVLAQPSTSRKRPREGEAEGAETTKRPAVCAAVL
Sequence of P70S6KB/RPS6KB2 (Q9UBS0 whole entry): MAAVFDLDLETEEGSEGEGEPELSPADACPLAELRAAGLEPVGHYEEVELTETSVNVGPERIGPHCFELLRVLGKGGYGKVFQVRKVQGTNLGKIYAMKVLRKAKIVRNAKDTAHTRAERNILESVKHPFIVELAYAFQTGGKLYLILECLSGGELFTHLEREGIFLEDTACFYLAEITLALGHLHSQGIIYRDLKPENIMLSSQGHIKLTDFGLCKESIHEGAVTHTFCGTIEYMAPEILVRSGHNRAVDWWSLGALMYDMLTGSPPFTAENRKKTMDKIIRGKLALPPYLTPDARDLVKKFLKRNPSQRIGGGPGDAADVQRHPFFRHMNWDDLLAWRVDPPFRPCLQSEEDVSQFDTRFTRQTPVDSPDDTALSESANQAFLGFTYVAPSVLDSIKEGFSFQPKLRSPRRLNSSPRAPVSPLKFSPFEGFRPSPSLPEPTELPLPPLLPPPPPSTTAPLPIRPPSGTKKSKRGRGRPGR
Sequence of EPHAS (P29322 28-1005): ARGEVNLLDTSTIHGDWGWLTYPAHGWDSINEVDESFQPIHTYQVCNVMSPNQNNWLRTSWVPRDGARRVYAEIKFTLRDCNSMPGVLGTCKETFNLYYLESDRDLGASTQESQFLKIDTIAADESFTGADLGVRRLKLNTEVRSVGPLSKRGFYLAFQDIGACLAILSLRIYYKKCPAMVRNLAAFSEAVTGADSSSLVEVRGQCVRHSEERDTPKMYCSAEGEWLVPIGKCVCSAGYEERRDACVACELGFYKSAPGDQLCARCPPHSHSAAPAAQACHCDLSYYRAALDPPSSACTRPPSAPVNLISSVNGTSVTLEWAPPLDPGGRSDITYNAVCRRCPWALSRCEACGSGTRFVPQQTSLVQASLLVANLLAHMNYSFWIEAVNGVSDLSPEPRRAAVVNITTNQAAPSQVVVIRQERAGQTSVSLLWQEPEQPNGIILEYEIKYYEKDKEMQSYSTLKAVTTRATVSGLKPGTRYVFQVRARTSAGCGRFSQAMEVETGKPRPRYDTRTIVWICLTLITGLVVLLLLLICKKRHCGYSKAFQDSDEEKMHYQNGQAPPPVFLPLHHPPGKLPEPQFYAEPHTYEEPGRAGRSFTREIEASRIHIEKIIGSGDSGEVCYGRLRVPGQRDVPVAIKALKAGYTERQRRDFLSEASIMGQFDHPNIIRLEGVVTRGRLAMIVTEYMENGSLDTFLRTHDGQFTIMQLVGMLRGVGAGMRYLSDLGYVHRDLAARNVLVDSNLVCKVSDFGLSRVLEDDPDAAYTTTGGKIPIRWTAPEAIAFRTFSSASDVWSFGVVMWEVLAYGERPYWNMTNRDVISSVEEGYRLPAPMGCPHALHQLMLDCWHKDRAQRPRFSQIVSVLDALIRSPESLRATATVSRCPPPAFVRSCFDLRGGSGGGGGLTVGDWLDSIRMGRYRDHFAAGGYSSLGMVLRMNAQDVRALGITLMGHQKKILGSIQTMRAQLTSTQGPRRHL
Sequence of STK38L/NDR2 (Q9Y2H1 whole entry): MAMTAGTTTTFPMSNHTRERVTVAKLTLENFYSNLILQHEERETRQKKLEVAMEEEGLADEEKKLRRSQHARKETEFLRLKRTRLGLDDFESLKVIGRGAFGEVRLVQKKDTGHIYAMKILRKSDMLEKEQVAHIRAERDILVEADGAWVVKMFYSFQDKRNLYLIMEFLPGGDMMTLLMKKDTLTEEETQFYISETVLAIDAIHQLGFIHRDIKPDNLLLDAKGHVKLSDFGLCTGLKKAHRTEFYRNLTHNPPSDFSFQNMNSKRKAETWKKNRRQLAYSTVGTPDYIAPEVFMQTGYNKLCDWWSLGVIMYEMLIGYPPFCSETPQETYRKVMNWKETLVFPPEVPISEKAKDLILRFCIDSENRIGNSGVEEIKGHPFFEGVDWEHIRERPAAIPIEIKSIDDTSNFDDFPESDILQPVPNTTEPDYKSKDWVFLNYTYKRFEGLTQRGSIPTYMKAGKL

| Structure (SMILES) | remaining activity at 1 µM [1] [%] | remaining activity at 1 µM [2] [%] | remaining activity at 1 µM [3] [%] | remaining activity at 1 µM [4] [%] | remaining activity at 1 µM [5] [%] | remaining activity at 1 µM [6] [%] | remaining activity at 1 µM [8] [%] | remaining activity at 1 µM [9] [%] | remaining activity at 1 µM [10] [%] | remaining activity at 1 µM [12] [%] | remaining activity at 1 µM [13] [%] | remaining activity at 1 µM [14] [%] | remaining activity at 1 µM [15] [%] | remaining activity at 1 µM [17] [%] | remaining activity at 1 µM [18] [%] | remaining activity at 1 µM [19] [%] | remaining activity at 1 µM [20] [%] | remaining activity at 1 µM [21] [%] | remaining activity at 1 µM [22] [%] | remaining activity at 1 µM [24] [%] | also measured |
| --- | --- | --- | --- | --- | --- | --- | --- | --- | --- | --- | --- | --- | --- | --- | --- | --- | --- | --- | --- | --- | --- |
| Cc1cn(-c2cc(C(=O)Nc3ccc(C)c(N4Cc5cnc(NC6CC6)nc5C5(CC5)C4=O)c3)cc(C(F)(F)F)c2)cn1 [Compound 8, N-(3-(2'-(cyclopropylamino)-7'-oxo-5'H-spiro[cyclopropane-1,8'-pyrido[4,3-d]pyrimidine]-6'(7'H)-yl)-4-methylphenyl)-3-(4-methyl-1H-imidazol-1-yl)-5-(trifluoromethyl)benzamide] | ≤ 40 | ≤ 40 | > 40 | > 40 | ≤ 40 | ≤ 40 | > 40 | > 40 | > 40 | > 40 | > 40 | > 40 | > 40 | ≤ 40 | ≤ 40 | ≤ 40 | ≤ 40 | ≤ 40 | > 40 | > 40 | remaining activity at 1 µM ([7]; CAMKIG): > 40%; remaining activity at 1 µM ([11]; CKIEPSILON): > 40%; remaining activity at 1 µM ([16]; EPHAS (row 110), 1 µM): ≤ 40%; remaining activity at 1 µM ([23]; GSK3B): > 40%; remaining activity at 1 µM [25]: ≤ 40%; remaining activity at 1 µM [26]: ≤ 40%; remaining activity at 1 µM [27]: > 40%; remaining activity at 1 µM [28]: > 40%; remaining activity at 1 µM ([29]; P70S6KB/RPS6KB2, 1 µM): > 40%; remaining activity at 1 µM [30]: > 40%; remaining activity at 1 µM [31]: > 40%; remaining activity at 1 µM [32]: > 40%; remaining activity at 1 µM [33]: ≤ 40% |
| Cc1ccc(Nc2ncc3c(n2)C2(CC2)C(=O)N(c2cc(NC(=O)c4cccc(C(F)(F)F)c4)ccc2C)C3)cn1 [Compound 51, N-(4-methyl-3-(2'-((6-methylpyridin-3-yl)amino)-7'-oxo-5'H-spiro[cyclopropane-1,8'-pyrido[4,3-d]pyrimidine]-6'(7'H)-yl)phenyl)-3-(trifluoromethyl)benzamide] | ≤ 40 | ≤ 40 | > 40 | > 40 | ≤ 40 | ≤ 40 | > 40 | > 40 | > 40 | > 40 | > 40 | > 40 | > 40 | ≤ 40 | ≤ 40 | ≤ 40 | ≤ 40 | ≤ 40 | > 40 | > 40 | remaining activity at 1 µM ([7]; CAMK1g): > 40%; remaining activity at 1 µM ([11]; CKlepsilon): > 40%; remaining activity at 1 µM ([16]; EPHA8, 1 µM): ≤ 40%; remaining activity at 1 µM ([23]; GSK3b): > 40%; remaining activity at 1 µM [25]: ≤ 40%; remaining activity at 1 µM [26]: ≤ 40%; remaining activity at 1 µM [27]: > 40%; remaining activity at 1 µM [28]: > 40%; remaining activity at 1 µM ([29]; p70S6Kb/RPS6KB2, 1 µM): > 40%; remaining activity at 1 µM [30]: > 40%; remaining activity at 1 µM [31]: > 40%; remaining activity at 1 µM [32]: > 40%; remaining activity at 1 µM [33]: ≤ 40% |
